Values of other authors as cited in US9119854B2, “Methods for treating cancer using combination therapy” (CELGENE CORPORATION, priority 2013, dated 2015).

How the values were obtained:
BTK = BTK (Homo sapiens, UniProt Q06187); details: enzymatic and cellular assays; the '610 publication
CRBN = CRBN (Homo sapiens, UniProt Q96SW2); details: in vitro; Ito et al., Science 2010
CRBN, sequence (Q96SW2 whole entry): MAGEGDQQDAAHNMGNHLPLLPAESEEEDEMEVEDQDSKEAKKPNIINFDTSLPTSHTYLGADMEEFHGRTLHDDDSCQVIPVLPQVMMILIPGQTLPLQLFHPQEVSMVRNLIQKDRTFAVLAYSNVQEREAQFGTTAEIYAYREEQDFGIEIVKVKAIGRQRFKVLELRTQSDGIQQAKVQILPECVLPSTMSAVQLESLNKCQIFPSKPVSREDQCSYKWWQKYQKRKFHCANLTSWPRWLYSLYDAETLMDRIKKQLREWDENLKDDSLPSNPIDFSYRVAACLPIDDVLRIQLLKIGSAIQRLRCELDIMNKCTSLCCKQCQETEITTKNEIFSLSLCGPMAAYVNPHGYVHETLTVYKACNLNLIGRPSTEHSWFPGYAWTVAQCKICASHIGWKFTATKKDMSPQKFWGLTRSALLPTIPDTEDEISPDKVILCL
CRBN, sequence (Q16531 whole entry partner): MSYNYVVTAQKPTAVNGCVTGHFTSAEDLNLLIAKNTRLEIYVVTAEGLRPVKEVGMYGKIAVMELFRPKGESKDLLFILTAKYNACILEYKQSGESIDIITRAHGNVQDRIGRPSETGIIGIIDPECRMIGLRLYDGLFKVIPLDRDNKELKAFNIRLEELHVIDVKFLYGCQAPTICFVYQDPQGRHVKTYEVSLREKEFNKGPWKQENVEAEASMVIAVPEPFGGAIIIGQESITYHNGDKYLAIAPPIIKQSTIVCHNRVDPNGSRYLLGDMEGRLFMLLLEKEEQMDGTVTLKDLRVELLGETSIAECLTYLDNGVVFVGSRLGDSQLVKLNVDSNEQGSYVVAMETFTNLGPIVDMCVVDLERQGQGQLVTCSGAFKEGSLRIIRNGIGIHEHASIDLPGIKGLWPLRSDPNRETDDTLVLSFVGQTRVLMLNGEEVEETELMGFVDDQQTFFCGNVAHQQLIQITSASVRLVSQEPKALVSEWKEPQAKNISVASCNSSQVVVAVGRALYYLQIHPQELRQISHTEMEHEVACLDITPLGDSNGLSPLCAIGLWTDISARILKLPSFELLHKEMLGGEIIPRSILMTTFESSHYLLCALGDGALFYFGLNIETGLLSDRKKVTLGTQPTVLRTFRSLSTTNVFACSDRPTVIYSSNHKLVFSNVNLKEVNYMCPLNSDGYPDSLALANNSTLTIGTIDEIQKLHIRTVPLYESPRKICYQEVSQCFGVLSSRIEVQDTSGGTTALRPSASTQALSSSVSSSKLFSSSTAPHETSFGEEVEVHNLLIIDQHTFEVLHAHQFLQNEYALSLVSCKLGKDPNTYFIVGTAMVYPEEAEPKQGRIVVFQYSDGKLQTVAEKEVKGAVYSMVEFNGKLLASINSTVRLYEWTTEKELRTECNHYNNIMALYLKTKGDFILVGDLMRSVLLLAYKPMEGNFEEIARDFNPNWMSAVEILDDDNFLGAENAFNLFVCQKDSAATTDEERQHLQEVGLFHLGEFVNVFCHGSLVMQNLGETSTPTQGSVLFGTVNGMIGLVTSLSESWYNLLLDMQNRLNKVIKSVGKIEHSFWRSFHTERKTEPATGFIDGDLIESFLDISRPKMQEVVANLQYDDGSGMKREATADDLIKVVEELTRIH
CRBN, sequence (Q13619 whole entry partner): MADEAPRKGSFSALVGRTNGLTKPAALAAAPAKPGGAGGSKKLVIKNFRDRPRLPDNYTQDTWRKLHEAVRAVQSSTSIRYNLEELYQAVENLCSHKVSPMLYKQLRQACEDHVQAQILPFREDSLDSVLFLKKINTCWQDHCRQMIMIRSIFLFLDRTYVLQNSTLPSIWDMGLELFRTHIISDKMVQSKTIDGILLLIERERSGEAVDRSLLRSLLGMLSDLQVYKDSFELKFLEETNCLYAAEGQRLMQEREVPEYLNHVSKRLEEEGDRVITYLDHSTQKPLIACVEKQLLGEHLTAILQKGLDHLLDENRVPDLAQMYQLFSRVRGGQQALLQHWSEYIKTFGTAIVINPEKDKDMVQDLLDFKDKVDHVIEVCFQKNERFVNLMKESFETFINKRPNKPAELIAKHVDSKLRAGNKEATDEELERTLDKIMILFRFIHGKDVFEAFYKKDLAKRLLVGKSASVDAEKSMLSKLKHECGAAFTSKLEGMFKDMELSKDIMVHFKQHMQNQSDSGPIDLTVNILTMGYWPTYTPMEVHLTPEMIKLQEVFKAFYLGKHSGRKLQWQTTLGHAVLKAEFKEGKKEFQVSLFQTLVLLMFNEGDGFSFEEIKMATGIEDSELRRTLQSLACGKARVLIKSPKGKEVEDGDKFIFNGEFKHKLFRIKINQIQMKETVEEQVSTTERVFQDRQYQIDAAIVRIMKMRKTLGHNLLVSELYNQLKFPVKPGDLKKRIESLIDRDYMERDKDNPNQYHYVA
CRBN, sequence (P62877 whole entry partner): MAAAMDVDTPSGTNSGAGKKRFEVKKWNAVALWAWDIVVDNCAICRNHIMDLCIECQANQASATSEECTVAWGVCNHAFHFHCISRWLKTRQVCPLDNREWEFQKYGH

BTK, sequence (Q06187 whole entry, species assumed): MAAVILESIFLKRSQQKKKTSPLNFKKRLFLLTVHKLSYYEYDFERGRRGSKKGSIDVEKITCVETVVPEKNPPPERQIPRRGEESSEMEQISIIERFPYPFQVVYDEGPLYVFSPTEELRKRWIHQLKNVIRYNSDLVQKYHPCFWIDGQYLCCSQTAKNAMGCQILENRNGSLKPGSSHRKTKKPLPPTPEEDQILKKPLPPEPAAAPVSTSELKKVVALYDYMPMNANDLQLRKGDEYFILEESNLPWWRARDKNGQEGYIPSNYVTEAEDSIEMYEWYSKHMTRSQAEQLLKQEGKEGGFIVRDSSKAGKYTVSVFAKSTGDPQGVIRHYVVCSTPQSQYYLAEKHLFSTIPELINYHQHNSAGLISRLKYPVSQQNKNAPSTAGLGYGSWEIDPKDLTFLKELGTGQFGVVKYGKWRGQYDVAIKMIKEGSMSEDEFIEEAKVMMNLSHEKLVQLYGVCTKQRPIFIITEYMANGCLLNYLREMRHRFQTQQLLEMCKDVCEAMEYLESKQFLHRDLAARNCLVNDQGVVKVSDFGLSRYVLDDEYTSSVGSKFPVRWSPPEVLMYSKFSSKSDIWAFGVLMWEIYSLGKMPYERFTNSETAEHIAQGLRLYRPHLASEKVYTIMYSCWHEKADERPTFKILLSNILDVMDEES

Row | SMILES | inhibition of BTK (BTK) | B-cell proliferation and activation (B-cell) | auto-ubiquitination of CRBN (CRBN)
1 | C=CC(=O)Nc1cccc(Nc2nc(Nc3ccc(OCCOC)cc3)ncc2F)c1 [Compound AA, N-(3-(5-fluoro-2-(4-(2-methoxyethoxy)phenylamino)pyrimidin-4-ylamino)phenyl)acrylamide] | covalent, irreversible inhibition | found to inhibit | –
2 | O=C1CCC(N2C(=O)c3ccccc3C2=O)C(=O)N1 (stereo not drawn) [thalidomide] | – | – | able to inhibit
